Key:
Format in all cases: cell-based, P. putida
[1] = test system: J3-BBa_J23117-mvaES; assay: mevalonate pathway activation by CRISPRa, GC-MS; settings: 13-mvaES (pBBR1-GmR); relative to off-target scRNA; FIG. 7B
Method: For mevalonate production experiments, the GC-MS method was adapted from prior methods (Pfleger et al., 2007. Microbial sensors for small molecules: Development of a mevalonate biosensor. Metab. Eng. 9, 30-38). Single colonies from LB plates were inoculated in 500 µL of EZ-RDM (Teknova) supplemented with the appropriate antibiotics and grown in 96-deep-well plates at 30° C. with shaking overnight at 225 rpm. Overnight cultures were subcultured by 1:100 dilution into 3 mL of EZ-RDM media with 1% glucose as the carbon source, supplemented with the appropriate antibiotics, and shaken at 225 rpm for 72 hours at 30° C. After 72 hours, 560 µL of cell suspension was acidified with 140 µL of 0.5 M HCl and vortexed. 700 µL ethyl acetate was added and samples were then vortexed again vigorously for 3 minutes and centrifuged at maximum speed in a benchtop centrifuge (15,000 rcf) for 10 min. […] The temperature cycle started at 80° C. and was followed by a gradient of 20° C./min to 260° C., a second gradient of 40° C./min to 300° C., and a hold at 300° C. for 2 min. m/z = 71, the second most abundant peak corresponding to mevalonolactone, was used for quantitation (Pfleger et al., 2007. Microbial sensors for small molecules: Development of a mevalonate biosensor. Metab. Eng. 9, 30-38). […] The calculated concentration was adjusted by the addition of HCl. […]

[2] = test system: J3-GTPCH, J3-PTPS, J3-SR; assay: biopterin pathway activation by CRISPRa, HPLC-MS; settings: J3-SR (pBBR1-GmR), relative to off-target scRNA, FIG. 6D
[3] = test system: J3 promoter; assay: CRISPRa reporter gene activation, J3-BBa_J23117-mRFP; settings: for activation of mRFP: FIG. 4
Method: Fluorescence measurements of reporter gene expression were carried out either by flow cytometry or plate reader. Single colonies from LB plates were inoculated in 500 µL of EZ-RDM (Teknova) supplemented with the appropriate antibiotics and grown in 96-deep-well plates at 30° C. with shaking overnight 225 rpm. For small-molecule induction, overnight cultures were diluted 100-fold into a new culture with appropriate antibiotics and inducers, then shaken overnight at 30° C., 225 rpm. For flow cytometry, overnight cultures were diluted 1:50 in Dulbecco’s phosphate-buffered saline (PBS) and analyzed on a MACSQuant VYB flow cytometer with the MACSQuantify 2.8 software (Miltenyi Biotec) using the methods and instruments settings as described (Dong et al., 2018. Synthetic CRISPR-Cas gene activators for transcriptional reprogramming in bacteria. Nat Commun 9, 2489). For plate reader measurements, 150 µL of overnight culture were transferred into a flat, clear-bottomed black 96-well plate. OD600 and fluorescence values were measured in a Biotek Synergy HTX plate reader and analyzed using the BioTek Gen5 2.07.17 software. For mRFP1 detection, the excitation wavelength was 540 nm and emission wavelength was 600 nm. For sfGFP detection, the excitation wavelength was 485 nm and the emission wavelength was 528 nm. Data were plotted using Prism (GraphPad).
Next, the 20 bp target sequence that is recognized by the scRNA was examined. The experiments described above were performed with the J1 promoter, which contains an array of 20 base target sites. An alternative promoter, termed J3, that has a different set of 20 base target sites was tested. […] Compared to the J1 promoter, where a 4-fold activation (J106 target site) was observed, the fold-activation with the J3 promoter increased to 34-fold (J306 target site) (FIG. 2D). For both J1 and J3, the CRISPRa-induced expression levels were similar. The large difference in fold-activation results from an unexpected difference in basal expression levels. The basal expression of J3-mRFP is 11-fold lower than that of J1-mRFP, which leads to much higher fold-activation. […]
With optimized expression levels and a delivery strategy for the CRISPRa system in P. putida in place, whether CRISPRa and CRISPRi can be used together to activate and repress multiple genes was tested. […] A dual scRNA/sgRNA cassette was inserted in this plasmid with a J306 scRNA for mRFP activation and an sgRNA that targets within the sfGFP open reading frame (ORF) for repression. […]

Substance: J306: scRNA, SEQ ID NO: 95, target TTGTGTCCAGAACGCTCCGT, J3 and J1(306) promoters, template strand, 81 to TSS (chemistry not given here)
- Fold-change, metabolite production [1]: >40-fold
- Fold-change, metabolite production [2]: 5-fold
- Fold-change ([3]; J3-mRFP (integrated), dual reporters genomically-integrated, FIG. 15A): 3-fold
- Fold-change ([3]; J3-mRFP (pBBR1-GmR), dual mRFP/sfGFP reporter plasmid-bourne, FIG. 13): 41-fold
- activation of mRFP ([3]; just a single scRNA delivered, weak mRFP/strong sfGFP dual-reporter plasmid): 15 fold
- activation of mRFP ([3]; simultaneous CRISPRa/CRISPRi, dual-reporter plasmid with sfGFP-repressing sgRNA): 6.6 fold

From patent US20230340440A1, “GENETIC MANIPULATION METHOD IN BACTERIA” (University of Washington, priority 2022, published 2023)
